Results reported in patent US11840686B2, “Modulation of prekallikrein (PKK) expression” (Ionis Pharmaceuticals, Inc., priority 2013, dated 2023).
Strand notation (5' to 3'): a small letter for the sugar, then the base; units joined by * are phosphorothioate-linked, units joined directly phosphodiester-linked; [ ] holds rarer units or linkages, { } end groups; capitals alone tell only the bases. e = 2'-O-(2-methoxyethyl) (MOE); k = constrained ethyl (cEt); [5mC] = 5-methylcytosine; d = 2'-deoxy (DNA)

Tested on: human PKK mRNA
Experiment: Antisense inhibition of human PKK mRNA in HepaRG cells, 1,000 nM, MOE/deoxy/cEt oligonucleotides (Example 3)
Type: cell-based
Details: Table 28; HepaRG cells, 1,000 nM antisense oligonucleotide; human PKK mRNA
Outline: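 HepaRG cells at 20,000 per well electroporated with 1,000 nM 16-mer MOE/cEt/deoxy gapmers (phosphorothioate, 5-methylcytosine). After about 24 h, PKK mRNA measured by qRT-PCR with primer probe set RTS3454, normalized to RIBOGREEN total RNA. Reported as percent inhibition versus untreated cells.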

Row | Substance | % inhibition [%]
1 | 548459 (e[5mC]*eA*kA*d[5mC]*dT*dA*dT*dA*dA*d[5mC]*dA*dG*dT*kA*kT*e[5mC]; antisense) [compound 548459] | 26
2 | 548460 (e[5mC]*eT*kA*dT*dA*d[5mC]*d[5mC]*dA*d[5mC]*dG*dG*dT*dA*kA*k[5mC]*eT; antisense) [compound 548460] | 0
3 | 548461 (e[5mC]*e[5mC]*kT*dA*dT*dA*dT*d[5mC]*dA*d[5mC]*dT*dG*dT*kA*kA*e[5mC]; antisense) [compound 548461] | 0
4 | 548462 (eA*e[5mC]*k[5mC]*dT*dA*dT*dA*dT*d[5mC]*dA*d[5mC]*dT*dG*kT*kA*eA; antisense) [compound 548462] | 0
5 | 548463 (eT*e[5mC]*kA*d[5mC]*dT*dG*dT*dA*d[5mC]*d[5mC]*dT*dA*dT*kA*kT*e[5mC]; antisense) [compound 548463] | 0
6 | 548464 (eG*eT*k[5mC]*d[5mC]*dT*dA*dT*dA*dA*d[5mC]*dT*dA*dT*kA*kT*e[5mC]; antisense) [compound 548464] | 0
7 | 548465 (e[5mC]*eT*kG*dT*dA*d[5mC]*d[5mC]*dT*dA*dT*dA*dA*d[5mC]*kT*kG*eT; antisense) [compound 548465] | 0
8 | 548466 (e[5mC]*eG*kT*d[5mC]*dA*d[5mC]*dT*dG*dT*dA*d[5mC]*d[5mC]*dT*kA*kT*eA; antisense) [compound 548466] | 71
9 | 548467 (e[5mC]*eA*kT*d[5mC]*dA*d[5mC]*dT*dG*dT*dA*d[5mC]*d[5mC]*dT*kA*kT*eA; antisense) [compound 548467] | 20
10 | 548468 (e[5mC]*eA*kA*d[5mC]*dA*dT*d[5mC]*dA*d[5mC]*dT*dG*dT*dA*k[5mC]*k[5mC]*eT; antisense) [compound 548468] | 6
11 | 548469 (eT*eT*k[5mC]*d[5mC]*d[5mC]*dT*dA*d[5mC]*d[5mC]*d[5mC]*d[5mC]*dT*dG*kG*kT*eA; antisense) [compound 548469] | 0
12 | 548470 (eG*eG*kT*dG*dG*dA*dA*dT*dG*dT*d[5mC]*dA*dT*kG*kG*e[5mC]; antisense) [compound 548470] | 56
13 | 548471 (eG*e[5mC]*kG*dG*dA*dA*dA*dA*d[5mC]*dT*dG*dG*d[5mC]*k[5mC]*kG*eT; antisense) [compound 548471] | 17
14 | 548472 (e[5mC]*e[5mC]*k[5mC]*dA*dA*dT*dA*d[5mC]*dA*dG*dG*dG*d[5mC]*k[5mC]*kA*eG; antisense) [compound 548472] | 0
15 | 548473 (e[5mC]*e[5mC]*kA*dA*d[5mC]*d[5mC]*dT*dT*d[5mC]*d[5mC]*d[5mC]*dA*dA*kT*k[5mC]*eT; antisense) [compound 548473] | 0
16 | 548474 (eG*eA*kA*dG*dG*dT*dG*dT*dG*d[5mC]*dT*dG*dT*k[5mC]*kG*e[5mC]; antisense) [compound 548474] | 33
17 | 548475 (eA*eT*k[5mC]*dG*dA*dG*dT*d[5mC]*d[5mC]*dT*dG*d[5mC]*d[5mC]*kT*k[5mC]*e[5mC]; antisense) [compound 548475] | 17
18 | 548476 (eG*e[5mC]*kA*dA*dA*dT*d[5mC]*d[5mC]*dT*dT*d[5mC]*d[5mC]*dA*kG*k[5mC]*eA; antisense) [compound 548476] | 27
19 | 548477 (eG*e[5mC]*kA*d[5mC]*dG*dA*dG*d[5mC]*dT*dT*dG*d[5mC]*d[5mC]*kT*kG*eT; antisense) [compound 548477] | 26
20 | 548478 (eG*eA*kG*d[5mC]*d[5mC]*dA*dT*d[5mC]*d[5mC]*dA*dG*dG*dG*kT*kG*e[5mC]; antisense) [compound 548478] | 53
21 | 548480 (eG*e[5mC]*k[5mC]*dA*d[5mC]*dG*d[5mC]*d[5mC]*d[5mC]*dT*dT*dA*dG*k[5mC]*kA*eG; antisense) [compound 548480] | 20
22 | 548481 (eG*eT*kT*d[5mC]*d[5mC]*d[5mC]*dT*dG*dA*dG*dG*dA*dA*k[5mC]*kG*eG; antisense) [compound 548481] | 2
23 | 548482 (eG*eG*k[5mC]*dA*dG*dT*dT*dA*dG*dG*d[5mC]*d[5mC]*dA*kG*kG*eA; antisense) [compound 548482] | 53

Row | Substance | % inhibition [%]
24 | 548483 (e[5mC]*eT*kA*d[5mC]*dA*dG*dA*dT*d[5mC]*dA*dT*d[5mC]*d[5mC]*k[5mC]*kT*eA; antisense) [compound 548483] | 5
25 | 548484 (e[5mC]*e[5mC]*k[5mC]*d[5mC]*dG*dG*dA*dG*d[5mC]*dA*d[5mC]*d[5mC]*dT*kT*k[5mC]*eA; antisense) [compound 548484] | 41
26 | 548485 (eG*eT*kG*dA*d[5mC]*d[5mC]*d[5mC]*dA*dA*dG*dG*dG*dT*k[5mC]*kG*eA; antisense) [compound 548485] | 17
27 | 548487 (eT*e[5mC]*k[5mC]*dA*dT*dG*dT*d[5mC]*dA*dG*dA*dG*dT*kT*kG*e[5mC]; antisense) [compound 548487] | 71
28 | 548488 (antisense e[5mC]*e[5mC]*kT*d[5mC]*d[5mC]*dT*dT*dT*dT*dG*dG*d[5mC]*dT*kT*kG*eA) [compound 548488] | 63
29 | 548489 (antisense eT*eT*k[5mC]*d[5mC]*d[5mC]*d[5mC]*dA*dG*dA*dG*dG*dT*dG*kA*kT*eA) [compound 548489] | 16
30 | 548490 (antisense eT*e[5mC]*kT*dG*dG*dT*dT*dA*dG*d[5mC]*d[5mC]*dT*d[5mC]*k[5mC]*kG*eA) [compound 548490] | 58
31 | 548491 (antisense eT*eG*kG*d[5mC]*d[5mC]*dA*dA*dG*d[5mC]*dA*dA*d[5mC]*d[5mC]*kA*kG*eT) [compound 548491] | 57
32 | 548492 (antisense eG*e[5mC]*k[5mC]*d[5mC]*dA*dA*dT*dG*dT*d[5mC]*d[5mC]*dT*dA*kA*k[5mC]*e[5mC]) [compound 548492] | 51
33 | 548493 (antisense e[5mC]*e[5mC]*kA*d[5mC]*d[5mC]*dG*d[5mC]*dT*dG*d[5mC]*d[5mC]*d[5mC]*dG*k[5mC]*k[5mC]*eA) [compound 548493] | 37
34 | 548494 (antisense eT*eG*kT*dG*dA*d[5mC]*d[5mC]*d[5mC]*d[5mC]*d[5mC]*d[5mC]*dA*d[5mC]*k[5mC]*kG*e[5mC]) [compound 548494] | 39
35 | 548495 (antisense eT*eT*kG*dT*dG*dA*d[5mC]*d[5mC]*d[5mC]*d[5mC]*d[5mC]*d[5mC]*dA*k[5mC]*k[5mC]*eG) [compound 548495] | 55
36 | 548496 (antisense eA*e[5mC]*kT*dG*dA*dA*d[5mC]*d[5mC]*d[5mC]*d[5mC]*d[5mC]*dT*dT*kA*kG*eG) [compound 548496] | 0
37 | 548497 (antisense e[5mC]*e[5mC]*kT*dT*d[5mC]*dA*dT*dA*d[5mC]*d[5mC]*d[5mC]*d[5mC]*dT*k[5mC]*kA*e[5mC]) [compound 548497] | 26
38 | 548498 (antisense e[5mC]*e[5mC]*kG*dA*dT*dA*dA*d[5mC]*dA*dG*dA*d[5mC]*d[5mC]*kG*kG*e[5mC]) [compound 548498] | 71
39 | 548499 (antisense eA*eT*kA*d[5mC]*d[5mC]*d[5mC]*dG*dG*dA*dG*dT*d[5mC]*dA*kG*kG*eA) [compound 548499] | 56
40 | 548500 (antisense eA*eT*kT*dG*d[5mC]*dT*d[5mC]*dA*dG*dG*d[5mC]*d[5mC]*d[5mC]*k[5mC]*k[5mC]*eT) [compound 548500] | 29
41 | 548501 (antisense e[5mC]*eA*kA*dG*d[5mC]*d[5mC]*dA*d[5mC]*dT*dA*dA*d[5mC]*d[5mC]*k[5mC]*kA*e[5mC]) [compound 548501] | 33
42 | 548502 (antisense eA*eA*kT*dT*d[5mC]*dT*dT*dG*dG*dA*d[5mC]*d[5mC]*dA*kA*kG*eG) [compound 548502] | 25
43 | 548503 (antisense e[5mC]*e[5mC]*kA*dT*d[5mC]*dT*dA*d[5mC]*dT*d[5mC]*d[5mC]*d[5mC]*d[5mC]*k[5mC]*kA*eT) [compound 548503] | 9
44 | 548504 (antisense eG*e[5mC]*kA*dG*d[5mC]*dG*dA*dG*d[5mC]*dA*dT*dT*d[5mC]*k[5mC]*kA*eA) [compound 548504] | 28
45 | 548505 (antisense eG*eG*kA*d[5mC]*dA*dA*dT*dG*d[5mC]*d[5mC]*dT*dA*dT*kG*k[5mC]*eT) [compound 548505] | 21
46 | 548506 (antisense eG*eA*kA*dG*d[5mC]*d[5mC]*dA*dT*dT*d[5mC]*dA*d[5mC]*dT*kG*k[5mC]*eA) [compound 548506] | 32

Same assay, conditions: Table 30; human PKK mRNA, HepaRG cells, 1,000 nM antisense oligonucleotide

Row | Substance | % inhibition [%]
47 | 548453 (eT*eA*k[5mC]*d[5mC]*dT*dA*dT*dA*dA*d[5mC]*dA*dG*dT*kA*kT*e[5mC]; antisense) [compound 548453] | 12
48 | 548454 (eA*e[5mC]*kT*dG*dT*dA*d[5mC]*d[5mC]*dT*dA*dT*dA*dA*k[5mC]*kA*eG; antisense) [compound 548454] | 17
49 | 548455 (e[5mC]*eA*k[5mC]*d[5mC]*dG*dT*dA*d[5mC]*dT*dA*dG*dT*dT*kT*k[5mC]*e[5mC]; antisense) [compound 548455] | 64
50 | 548456 (eT*eA*kT*dA*dA*d[5mC]*dA*dG*dT*dA*dT*d[5mC]*dA*k[5mC]*k[5mC]*eG; antisense) [compound 548456] | 52
51 | 548457 (e[5mC]*eT*kA*dT*dA*dA*d[5mC]*dA*dG*dT*dA*dT*d[5mC]*kA*k[5mC]*e[5mC]; antisense) [compound 548457] | 13
52 | 548458 (eA*e[5mC]*k[5mC]*dT*dA*dT*dA*dA*d[5mC]*dT*dA*dT*dA*kA*k[5mC]*eA; antisense) [compound 548458] | 0
